pIC50: −log10 of the molar value.
Molecular target: Pantothenate kinase 3 (Homo sapiens, UniProt Q9H999)
Experiment: PANK Activity Assay
Procedure: All the experiments were repeated twice in duplicate and the data were an average ±data range. […] The experiments mimicking the mixture of ligands present in vivo were performed under different conditions.

Sequence of Pantothenate kinase 3 (Q9H999 whole entry): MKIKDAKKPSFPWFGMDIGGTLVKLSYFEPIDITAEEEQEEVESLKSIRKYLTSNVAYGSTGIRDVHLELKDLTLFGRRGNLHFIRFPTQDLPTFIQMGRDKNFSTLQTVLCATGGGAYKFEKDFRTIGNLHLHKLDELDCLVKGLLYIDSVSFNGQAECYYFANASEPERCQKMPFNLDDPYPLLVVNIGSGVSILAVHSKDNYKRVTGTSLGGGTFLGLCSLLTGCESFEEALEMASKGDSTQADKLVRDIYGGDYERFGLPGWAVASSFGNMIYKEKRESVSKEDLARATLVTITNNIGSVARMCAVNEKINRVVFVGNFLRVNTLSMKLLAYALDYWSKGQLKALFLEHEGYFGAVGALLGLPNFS

- pIC50: 8.91
Compound: O=C(Cc1ccc(C2CC2)c(F)c1)N1CCN(c2nc3ncc(F)cc3o2)CC1 [US12534451, Compound PZ-4351]

Source: BindingDB's records for patent US12534451 (St. Jude Children''s Research Hospital, Inc., 2026)
